Key:
HCEH = assay: Activity of HCEH on hydroxy-cinnamic acid ester substances and tannic acid (liquid chromatography); type: biochemical; settings: for Relative activity: HCEH on the substance as substrate, 0.1 M phosphate buffer pH 6.5, molar ratio of produced hydrolyzate; for Action and substrate specificity of the enzyme (hydrolysis of the ester linkage): qualitative
Procedure: Here, the activity of HCEH on various hydroxy-cinnamic acid ester substances and tannic acid was determined by measuring the quantity of their hydrolysis by means of liquid chromatography using 0.1 M phosphate buffer solution (pH 6.5). The results are shown in Table 3, where the activity is expressed as molar ratio of produced hydrolyzate.

novel HCEH = assay: Inhibition of the novel HCEH; type: biochemical

Row | Action and substrate specificity of the enzyme (hydrolysis of the ester linkage) (HCEH) | Compound | Relative activity (HCEH) | Inhibition of HCEH (novel HCEH)
1 | hydrolyze the ester linkage | O=C(C=Cc1ccc(O)c(O)c1)OC(C(=O)O)C(O)C(=O)O (stereo not shown) | 69.8% | 
2 | hydrolyze the ester linkage | O=C(C=Cc1ccc(O)c(O)c1)OC1CC(O)(C(=O)O)CC(O)C1O (stereo not shown) [3-caffeoyl quinic acid] | 100% | 
3 |  | Oc1cccc2cccnc12 [8-hydroxyquinoline] |  | inhibited
4 |  | [Fe+2] [Fe^++] |  | inhibited
5 |  | [Hg+2] [Hg^++] |  | inhibited
6 |  | II [iodine] |  | inhibited
7 |  | O=C(O)c1cc[c]([Hg][Cl])cc1 [p-CMB, p-chloromercury-benzoic acid] |  | inhibited
8 | hydrolyze the ester linkage | O=C(C=Cc1ccc(O)cc1)OC(C(=O)O)C(O)C(=O)O (stereo not shown) [p-coumaroyl tartaric acid] | 78.3% | 
9 |  | Tannic acid | 0% | 

Row | Compound | Action and substrate specificity of the enzyme (hydrolysis of the ester linkage) (HCEH) | Relative activity (HCEH) | Inhibition of HCEH (novel HCEH)
10 | COc1cc(C=CC(=O)OC(C(=O)O)C(O)C(=O)O)ccc1O (stereo not shown) [feruloyl tartaric acid] | hydrolyze the ester linkage |  | 

Source: patent US4370416A (Kikkoman Corporation, priority 1980, dated 1983)
